The text below walks through data of ChEMBL document CHEMBL5518174 (Eur J Med Chem, 2024).

Experiment [1] deals with Histone deacetylase. The experiment in a line: Inhibition of HDAC in human HeLa cells nuclear extract. Format: subcellular, Nucleus.
In experiment [2] the test system is NCI-H1975. Description: cells. The conditions noted are these: Homo sapiens, NCI-H1975, 48 h. It is filed as functional, cell-based.
Description: Cytotoxicity against human NCI-H1975 cells assessed as inhibition of cell growth incubated for 48 hrs by Celltiter-glo assay
Experiment [3] deals with MDA-MB-231. The experiment in a line: Cytotoxicity against human MDA-MB-231 cells assessed as inhibition of cell growth incubated for 48 hrs by Celltiter-glo assay. It is filed as functional, cell-based. The conditions noted are these: MDA-MB-231, 48 h. In general terms: In ATP-based viability assays light output follows the ATP content of the culture.
Experiment [4] is described as follows: Antiproliferative activity against human CL25 cells harboring mutated EGFR assessed as inhibition of cell growth by SRB assay. Format: functional, cell-based. (The SRB assay estimates cell density from bound dye.)
A short description of experiment [5]: Antiproliferative activity against human CL83 cells harboring wild-type EGFR assessed as inhibition of cell growth by SRB assay. It is filed as functional, cell-based.
Experiment [6] in a line: Antiproliferative activity against human CL1-5 cells harboring wild-type EGFR assessed as inhibition of cell growth by SRB assay. It is filed as functional, cell-based.
The nature of experiment [7]: Antiproliferative activity against human CL152 cells harboring wild-type EGFR assessed as inhibition of cell growth by SRB assay. Format: functional, cell-based.
Experiment [8] concerns NCI-H1975. Description: Induction of katanin activation mediated microtubule fragmentation in human NCI-H1975 cells at 80 nM incubated for 12 hrs by FITC/DAPI staining based confocal laser microscopic analysis. It is filed as cell-based. The conditions noted are these: filed as activator.
A short description of experiment [9]: Antiproliferative activity against human CL141 cells harboring wild-type EGFR assessed as inhibition of cell growth by SRB assay. Format: functional, cell-based.
Experiment [10] deals with CL1-0. The experiment in a line: Antiproliferative activity against human CL1-0 cells harboring wild-type EGFR assessed as inhibition of cell growth by SRB assay. It is filed as functional, cell-based.
The subject of experiment [11] is CL97. Description: Antiproliferative activity against human CL97 cells harboring mutated EGFR assessed as inhibition of cell growth by SRB assay. It is filed as functional, cell-based.
Experiment [12] in a line: Antiproliferative activity against human CL100 cells harboring mutated EGFR assessed as inhibition of cell growth by SRB assay. Format: functional, cell-based.

Structures are written as SMILES. Active and inactive are the calls of the source. No cut-off for these calls is given here.

What is called IC50 is the concentration needed to halve the response being measured.

Take `CCOc1ccc(-c2nc(C(=O)NCCCCCCNC(=O)CN)c3[nH]c(=O)n(-c4ccccc4OC)c3n2)cc1.Cl`: the IC50 was above 100 µM in experiment [1] and 2400 nM in experiment [2].

Regarding `CCOc1ccc(-c2nc(C(=O)NCCCCCCC(=O)NC3CCCCC3O)c3[nH]c(=O)n(-c4ccccc4OC)c3n2)cc1` (centres undefined), the values for the IC50 in experiment [1] and in experiment [2] were above 100 µM and 1400 nM, respectively.

Take `CCOc1ccc(-c2nc(C(=O)NCCCCCCCN(Cc3ccccn3)Cc3ccccn3)c3[nH]c(=O)n(-c4ccccc4OC)c3n2)cc1`: the results for the concentration for half-maximal inhibition (IC50) in experiment [1] and in [2] were above 100 µM and 2700 nM, respectively.

`CCOc1ccc(-c2nc(C(=O)NCCCCCCC(=O)NOC)c3[nH]c(=O)n(-c4ccccc4OC)c3n2)cc1`: the concentration for half-maximal inhibition (IC50) was above 100 µM in experiment [1] and 400 nM in experiment [2].

On to `CCOc1ccc(-c2nc(C(=O)NCCCCCCC(=O)O)c3[nH]c(=O)n(-c4ccccc4OC)c3n2)cc1`, for which the figures for the IC50 in experiment [1] and in experiment [2] were above 100 µM and 3400 nM, respectively.

Take `CCOc1ccc(-c2nc(C(=O)NCc3ccc(C(=O)NO)cc3)c3[nH]c(=O)n(-c4ccccc4OC)c3n2)cc1`: the IC50 in experiment [1] came out at 0.25 µM; in [2], 130 nM; in experiment [3], 70 nM.

Consider `CCOc1ccc(-c2nc(C(=O)NCCCCCCC(=O)NO)c3[nH]c(=O)n(-c4cccnc4OC)c3n2)cn1`, for which the results for the IC50 in [1], in [2] and in experiment [3] were 0.002 µM, 410 nM and 320 nM, respectively.

Regarding `CCOc1ccc(-c2nc(C(=O)NCCCCCCC(=O)NO)c3[nH]c(=O)n(-c4cccnc4OC)c3n2)cc1`, the values for the IC50 in experiment [1], in [2] and in experiment [3] were 0.03 µM, 300 nM and 60 nM, respectively.

`CCOc1ccc(-c2nc(C(=O)NCCCCCCC(=O)Nc3ccccc3N)c3[nH]c(=O)n(-c4ccccc4OC)c3n2)cc1`: the IC50 is above 100 µM in experiment [1] and 2200 nM in [2].

In the case of `CCOc1ccc(-c2nc(C(=O)NCCCCCCC(=O)N(Cc3ccccn3)Cc3ccccn3)c3[nH]c(=O)n(-c4ccccc4OC)c3n2)cc1`, the values for the IC50 in [1] and in experiment [2] were above 100 µM and 2300 nM, respectively.

As for `CCOc1ccc(-c2nc(C(=O)NCCCCCCNC(N)=O)c3[nH]c(=O)n(-c4ccccc4OC)c3n2)cc1`, the values for the IC50 in [1] and in experiment [2] were above 100 µM and 2000 nM, respectively.

`CCOc1ccc(-c2nc(C(=O)NCCOCCOCC(=O)NO)c3[nH]c(=O)n(-c4ccccc4OC)c3n2)cc1`: the IC50 in experiment [1] stood at 10.8 µM; in experiment [2], 4600 nM.

Turning to `CCOc1ccc(-c2nc(C(=O)O)c3[nH]c(=O)n(-c4ccccc4OC)c3n2)cc1`, the figures for the IC50 in experiment [1] and in experiment [2] were above 100 µM and above 100000 nM, respectively.

Take `CCOc1ccc(-c2nc(C(=O)NCCCCCCC(=O)NO)c3[nH]c(=O)n(-c4ccccc4OC)c3n2)cn1`: the IC50 in experiment [1] is 0.04 µM; in experiment [2], 400 nM; in experiment [3], 60 nM.

For the molecule `CCOc1ccc(-c2nc(C(=O)NCCCCCCNC(=O)NO)c3[nH]c(=O)n(-c4ccccc4OC)c3n2)cc1`, the values for the IC50 in experiment [1] and in experiment [2] were above 100 µM and 3300 nM, respectively.

`CCOc1ccc(-c2nc(C(=O)NCCCCCNC(=O)CN)c3[nH]c(=O)n(-c4ccccc4OC)c3n2)cc1.Cl`: the IC50 in experiment [1] is above 100 µM; in experiment [2] it was 4900 nM.

Turning to `CCOc1ccc(-c2nc(C(=O)NCCCCCCC(=O)CSC(C)=O)c3[nH]c(=O)n(-c4ccccc4OC)c3n2)cc1`, the values for the half-maximal inhibitory concentration (IC50) in experiment [1] and in experiment [2] were 2.83 µM and 5600 nM, respectively.

As for `CCOc1ccc(-c2nc(C(=O)NCCCCC/C(N)=N/O)c3[nH]c(=O)n(-c4ccccc4OC)c3n2)cc1`, the figures for the IC50 in experiment [1] and in experiment [2] were above 100 µM and 500 nM, respectively.

For the molecule `CCOc1ccc(-c2nc(C(=O)NO)c3[nH]c(=O)n(-c4ccccc4OC)c3n2)cc1`, the IC50 in experiment [1] is above 100 µM.

Turning to `CCOc1ccc(-c2nc(C(=O)NCCCc3nc(C(=O)NO)cs3)c3[nH]c(=O)n(-c4ccccc4OC)c3n2)cc1`, the IC50 in experiment [1] turned out to be 14.2 µM; in experiment [2], 4900 nM.

On to `CCOc1ccc(-c2nc(C(=O)NCCCCCCC(=O)NO)c3[nH]c(=O)n(-c4ccccc4OC)c3n2)cc1`, for which the IC50 in experiment [4] came out at 320 nM; in [5], 320 nM; in experiment [6], 170 nM; in [7] it was 260 nM; in experiment [1] it was 0.17 µM; in [2], 140 nM. Further, the IC50 in experiment [9] was found to be 270 nM; in experiment [10] it was 60 nM; in [3], 40 nM; in experiment [11], 240 nM; in experiment [12], 360 nM. Besides, in experiment [8], the result was Active.

Regarding `CCOc1ccc(-c2nc(C(=O)NCCCCCCC(=O)NO)c3[nH]c(=O)n(-c4ccccc4OC)c3n2)cc1S(N)(=O)=O`, the IC50 in experiment [1] amounted to 0.06 µM; in experiment [2] it was 24800 nM.

`CCOc1ccc(-c2nc(C(=O)NCCCCCCC(=O)Nc3nccs3)c3[nH]c(=O)n(-c4ccccc4OC)c3n2)cc1`: the results for the IC50 in experiment [1] and in experiment [2] were above 100 µM and 2600 nM, respectively.

For `CCOc1ccc(-c2nc(C(=O)NOCCCCCC(=O)NO)c3[nH]c(=O)n(-c4ccccc4OC)c3n2)cc1`, the half-maximal inhibitory concentration (IC50) in experiment [1] worked out at 0.13 µM; in experiment [2], 250 nM; in experiment [3] it was 100 nM.

As to `COc1ccccc1-n1c(=O)[nH]c2c(C(N)=O)nc(-c3ccc(C(C)C)cc3)nc21`, the IC50 is above 100 µM in experiment [1] and above 100000 nM in experiment [2].

The molecule `CCOc1ccc(-c2nc(C(N)=O)c3[nH]c(=O)n(-c4ccccc4OC)c3n2)cc1` came in with an IC50 in [1] above 100 µM.

For the molecule `CCOc1ccc(-c2nc(C(=O)NCCCCCCC(=O)N(C)O)c3[nH]c(=O)n(-c4ccccc4OC)c3n2)cc1`, the IC50 in experiment [1] was above 100 µM; in [2], 1500 nM.

`CCOc1ccc(-c2nc(C(=O)NCCCCNC(=O)CN)c3[nH]c(=O)n(-c4ccccc4OC)c3n2)cc1.Cl`: the IC50 is above 100 µM in experiment [1] and 16200 nM in experiment [2].

`COc1ccc(-c2nc(C(=O)NCCCCCCC(=O)NO)c3[nH]c(=O)n(-c4ccccc4OC)c3n2)cc1O`: the figures for the IC50 in experiment [1], in experiment [2] and in [3] were 0.01 µM, 1200 nM and 310 nM, respectively.

Consider `COc1ccccc1-n1c(=O)[nH]c2c(C(=O)NCCCCCCC(=O)NO)nc(C(C)C)nc21`, for which the IC50 is 0.2 µM in experiment [1] and 1500 nM in [2].
